Results published in ChEMBL document CHEMBL1201862, “PubChem BioAssay data set” (2004).
Activity calls are given as the source filed them.

What was measured:
[1] = target: Serine/threonine-protein phosphatase PP1-alpha catalytic subunit (Homo sapiens, UniProt P62136); assay: inhibition of protein phosphatase 1 activity – biochemical, fluorescence, dose response (AID 2403);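 note: phosphatase turnover of OMFP into fluorescent 3-O-methylfluorescein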
[2] = target: T1, Serine/threonine-protein phosphatase (Homo sapiens, UniProt Q9BPW0); assay: Counterscreen for inhibitors of PP1: fluorescence-based biochemical high throughput dose response assay to identify inhibitors of Protein Phosphatase 5 (PP5). [Related pubchem assays: 2034 (Summary (PP5 inhibitors)), 1987 (PP5 inhibitors in singlate), 2235 (PP1 inhibitors in singlate)]
T1 sequence (Q9BPW0 whole entry): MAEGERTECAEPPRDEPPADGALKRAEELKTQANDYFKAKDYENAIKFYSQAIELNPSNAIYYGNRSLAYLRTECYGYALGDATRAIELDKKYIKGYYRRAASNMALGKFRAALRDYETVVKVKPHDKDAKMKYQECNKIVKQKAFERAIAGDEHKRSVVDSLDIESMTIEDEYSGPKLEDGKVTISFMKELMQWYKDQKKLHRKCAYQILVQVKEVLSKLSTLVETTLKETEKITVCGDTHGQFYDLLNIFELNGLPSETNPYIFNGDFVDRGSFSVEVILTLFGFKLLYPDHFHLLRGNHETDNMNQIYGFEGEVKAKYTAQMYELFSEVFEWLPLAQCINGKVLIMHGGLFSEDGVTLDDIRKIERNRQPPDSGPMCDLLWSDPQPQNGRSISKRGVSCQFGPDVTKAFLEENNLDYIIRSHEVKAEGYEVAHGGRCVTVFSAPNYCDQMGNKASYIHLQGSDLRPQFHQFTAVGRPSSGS

[3] = target: Peroxisome proliferator-activated receptor gamma/Nuclear receptor corepressor 2 (Homo sapiens, UniProt P37231+Q9Y618); assay: Counterscreen for NR2E3 inverse agonists: TR-FRET-based biochemical high throughput dose response assay to identify inverse agonists of the interaction between peroxisome proliferator-activated receptor gamma (PPARg) and nuclear receptor co-repressor 2 (NCOR2).; type: functional
[4] = target: Photoreceptor-specific nuclear receptor (Homo sapiens, UniProt Q9Y5X4); assay: ligands suppressing NR2E3 nuclear receptor activity – biochemical, TR-FRET, dose response (AID 463256); type: functional
[5] = target: Eukaryotic translation initiation factor 4E (Mus musculus, UniProt P63073); assay: blockers of eIF4G binding by eIF4E – biochemical, TR-FRET, dose response (AID 855); type: functional;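 note: potency for disrupting eIF4E binding to eIF4GI seen as loss of FRET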
Hexokinase HKDC1 = Hexokinase HKDC1 (Homo sapiens, UniProt Q2TB90); assay: inhibition of HKDC1 glucose phosphorylation – biochemical, W721R variant, dose response (AID 504729); type: functional
[6] = target: Luciferin 4-monooxygenase (Photinus pyralis, UniProt P08659); assay: inhibition of purified Photinus pyralis luciferase – biochemical, luminescence, dose response (AID 1891)
[7] = Luminescence Cell-Based Dose Confirmation HTS to Identify Inhibitors of Platelet Dense Granule Release. [Related pubchem assays: 1663 (Primary HTS), 1678 (Summary of Project)]; type: functional
[8] = ADP-Glo luciferase signal interference – biochemical, luminescence, cherry-picked samples, set 2, artefact control for CDK5 inhibitor project, dose response (AID 504546); type: functional, cell-based
[9] = target: Cyclin-dependent kinase 5/CDK5 activator 1 (Homo sapiens, UniProt Q00535); assay: blockade of human CDK5 activity – biochemical, cherry-picked samples, set 2, dose response (AID 504545)
Bcl-2-like protein 10 = Bcl-2-like protein 10 (Homo sapiens, UniProt Q9HD36); assay: Bcl-B/TR3 peptide binding disruption – biochemical, fluorescence polarization, FITC-TR3 peptide, selectivity assay for Bfl-1 inhibitor project, primary screen (AID 748);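 note: fluorescence polarization from a fluorescein-labelled TR3 peptide binding purified Bcl-B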
[10] = target: T2, Calpain-2 catalytic subunit (Sus scrofa, UniProt P43367); assay: m-calpain protease blockers, concentration series – biochemical, fluorogenic peptide substrate, dose response (AID 1420); type: functional
T2 sequence (P43367 whole entry): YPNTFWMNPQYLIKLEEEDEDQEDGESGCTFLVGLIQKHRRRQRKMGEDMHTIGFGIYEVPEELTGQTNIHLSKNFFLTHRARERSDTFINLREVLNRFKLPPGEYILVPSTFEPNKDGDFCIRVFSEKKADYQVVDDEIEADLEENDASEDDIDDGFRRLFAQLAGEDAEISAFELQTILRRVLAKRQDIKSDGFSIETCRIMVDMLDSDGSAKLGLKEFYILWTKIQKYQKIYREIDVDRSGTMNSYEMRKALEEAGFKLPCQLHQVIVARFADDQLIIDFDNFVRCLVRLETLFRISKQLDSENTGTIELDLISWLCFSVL

Wee1-like protein kinase = Wee1-like protein kinase (Homo sapiens, UniProt P30291); assay: HeLa cell cycle G2/M accumulation – FACS, mechanism study for Wee1 degradation inhibitor project, late-stage follow-up, panel member Wee1 Degradation (AID 2088)
[11] = target: G2/mitotic-specific cyclin-B1 (Homo sapiens, UniProt P14635); assay: HeLa cell cycle G2/M accumulation – FACS, mechanism study for Wee1 degradation inhibitor project, late-stage follow-up, panel member Cyclin B Degradation (AID 2088)
[12] = target: Dual specificity protein phosphatase 3 (Homo sapiens, UniProt P51452); assay: inhibition constants for human DUSP3 – biochemical, colorimetric, SAR follow-up (AID 2004)
[13] = HEK-293T cell viability reduction – luminescence, B-cell screen hits, cytotoxicity control for BCR NF-kB inhibitor project, dose response (AID 489021); type: functional, cell-based;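 note: HEK-293T cells carrying an NF-kB luciferase reporter; cells exposed to compound for about 14 hours before viability readout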
[14] = target: T3, Histone-lysine N-methyltransferase NSD2 (Homo sapiens, UniProt O96028); type: biochemical
T3 sequence (O96028 whole entry): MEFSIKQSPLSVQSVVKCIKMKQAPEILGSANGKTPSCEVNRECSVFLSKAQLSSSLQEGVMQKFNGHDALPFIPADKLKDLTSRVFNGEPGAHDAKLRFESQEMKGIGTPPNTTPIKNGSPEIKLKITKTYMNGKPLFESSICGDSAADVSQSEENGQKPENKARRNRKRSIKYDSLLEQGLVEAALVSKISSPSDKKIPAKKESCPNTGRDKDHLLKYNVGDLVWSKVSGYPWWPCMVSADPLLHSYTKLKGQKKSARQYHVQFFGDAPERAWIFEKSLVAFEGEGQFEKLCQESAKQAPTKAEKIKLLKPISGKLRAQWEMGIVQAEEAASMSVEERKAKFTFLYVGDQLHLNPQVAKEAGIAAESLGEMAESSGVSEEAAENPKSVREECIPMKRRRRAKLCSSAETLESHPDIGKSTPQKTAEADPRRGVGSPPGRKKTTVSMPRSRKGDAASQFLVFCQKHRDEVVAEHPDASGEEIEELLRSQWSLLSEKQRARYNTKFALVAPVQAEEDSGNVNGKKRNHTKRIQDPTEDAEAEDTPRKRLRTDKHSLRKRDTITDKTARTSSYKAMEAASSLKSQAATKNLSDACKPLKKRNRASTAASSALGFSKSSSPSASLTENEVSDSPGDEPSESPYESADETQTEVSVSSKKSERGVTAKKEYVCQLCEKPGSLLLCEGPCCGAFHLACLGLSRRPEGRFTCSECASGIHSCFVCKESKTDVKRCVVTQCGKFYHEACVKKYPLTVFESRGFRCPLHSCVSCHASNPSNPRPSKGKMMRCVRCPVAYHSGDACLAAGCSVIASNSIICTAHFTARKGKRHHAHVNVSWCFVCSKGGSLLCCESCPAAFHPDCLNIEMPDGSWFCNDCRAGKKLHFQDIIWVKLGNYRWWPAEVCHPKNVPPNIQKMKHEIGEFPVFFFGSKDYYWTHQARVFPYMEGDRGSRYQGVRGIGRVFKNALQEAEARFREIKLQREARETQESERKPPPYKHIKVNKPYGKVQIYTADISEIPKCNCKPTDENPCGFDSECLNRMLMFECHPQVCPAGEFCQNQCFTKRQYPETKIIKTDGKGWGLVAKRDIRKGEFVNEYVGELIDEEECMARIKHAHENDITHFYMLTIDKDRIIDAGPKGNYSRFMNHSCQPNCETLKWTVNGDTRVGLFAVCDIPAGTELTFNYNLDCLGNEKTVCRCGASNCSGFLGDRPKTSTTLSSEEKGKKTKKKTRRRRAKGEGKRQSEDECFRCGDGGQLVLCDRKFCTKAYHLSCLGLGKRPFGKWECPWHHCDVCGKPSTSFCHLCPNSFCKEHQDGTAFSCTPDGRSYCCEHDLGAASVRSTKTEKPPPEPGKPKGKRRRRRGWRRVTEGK

Caspase-3 = target: T4, Caspase-3 (Homo sapiens, UniProt P42574); assay: activators of human procaspase-3 D3A mutant – biochemical, absorbance, PC-3 D3A mutant, counter-screen for dual procaspase-3/7 activator project, dose response (AID 504328)
T4 sequence (P42574 whole entry): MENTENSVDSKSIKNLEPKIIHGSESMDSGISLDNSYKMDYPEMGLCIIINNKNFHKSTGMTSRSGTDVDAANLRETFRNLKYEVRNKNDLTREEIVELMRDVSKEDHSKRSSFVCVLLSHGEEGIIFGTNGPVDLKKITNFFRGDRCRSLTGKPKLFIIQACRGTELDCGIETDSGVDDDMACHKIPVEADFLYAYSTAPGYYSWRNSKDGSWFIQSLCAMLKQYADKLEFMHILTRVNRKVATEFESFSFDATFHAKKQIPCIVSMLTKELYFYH

Caspase-7 = Caspase-7 (Homo sapiens, UniProt P55210); assay: potency of procaspase-7 enzyme activation – biochemical, absorbance, human, dual procaspase-3/-7 activator project, dose response (AID 504330)
[15] = target: NACHT, LRR and PYD domains-containing protein 3 (Homo sapiens, UniProt Q96P20); assay: NALP3 inhibitors in yeast, dose response, luminescent (AID 488799); type: functional
Genome polyprotein = Genome polyprotein (Hepatitis C virus, UniProt Q2Q167); assay: disruption of hepatitis C core self-association – biochemical, TR-FRET, dose response (AID 2159); parameters: species or system Hepacivirus hominis;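 note: blocks dimerization of HCV core protein measured by TR-FRET between tagged core106 pairs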
[16] = target: T5, Voltage-gated N-type calcium channel alpha-1B subunit/Amyloid beta A4 precursor protein-binding family A member 1 (Homo sapiens, UniProt Q00975+Q02410); type: protein assay
[17] = target: T5, Voltage-gated N-type calcium channel alpha-1B subunit/Amyloid beta A4 precursor protein-binding family A member 1; type: protein assay; remark: listed apart in the source
[18] = target: Induced myeloid leukemia cell differentiation protein Mcl-1 (Homo sapiens, UniProt Q07820); type: functional
SUMO E1/E2 = SUMO E1/E2 (Homo sapiens, UniProt P63279+Q9UBE0+Q9UBT2); assay: SAR analysis of SUMOylation using HTRF in an in-Vitro dose response assay. [Related pubchem assays (depositor defined):AID2006, AID2011, AID2018, AID2069, AID2658]; type: functional
[19] = target: T5, Voltage-gated N-type calcium channel alpha-1B subunit/Amyloid beta A4 precursor protein-binding family A member 1; assay: disruptors of Mint-PDZ/N-type channel peptide interaction – biochemical, HTRF, set 2, SAR follow-up (AID 434980); type: functional
[20] = target: T5, Voltage-gated N-type calcium channel alpha-1B subunit/Amyloid beta A4 precursor protein-binding family A member 1; assay: disruptors of Mint-PDZ/N-type channel peptide interaction – biochemical, HTRF, SAR follow-up (AID 2489); type: functional
[21] = target: T6, Probable nicotinate-nucleotide adenylyltransferase (Staphylococcus aureus (strain N315), UniProt P65502); type: functional, Staphylococcus aureus subsp. aureus N315;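 for IC50 Mean: confirmatory dose-response retesting of NadD inhibitor hits first found in an ultra-high-throughput screen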
[22] = target: T6, Probable nicotinate-nucleotide adenylyltransferase; type: functional, Staphylococcus aureus subsp. aureus N315; details: read-out: IC50_Mean
Mu-type opioid receptor = Mu-type opioid receptor (Homo sapiens, UniProt P35372); assay: SAR Analysis of Antagonists of the MOR Receptor using an Image-Based Assay - Set 3. [Related pubchem assays (depositor defined):AID1777, AID1785, AID1786, AID1966, AID2133, AID2136, AID2284, AID2285, AID2420]; type: functional
[23] = target: T7, Kappa-type opioid receptor (Homo sapiens, UniProt P41145); assay: SAR analysis of small molecule antagonists of the kappa opioid receptor via a luminescent beta-arrestin assay - Set 4. [Related pubchem assays (depositor defined):AID1777, AID1778, AID1785, AID1786, AID1966, AID2133, AID2136, AID2285]; type: functional
[24] = target: Delta-type opioid receptor (Homo sapiens, UniProt P41143); assay: SAR Analysis of Antagonists of the DOR Receptor using an Image-Based Assay - Set 3. [Related pubchem assays (depositor defined):AID1777, AID1785]; type: functional;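 note: U2OS cells expressing DOR1 and beta-arrestin GFP stimulated with 100 nM SNC80; imaging of GFP-tagged beta-arrestin moving into spots after receptor activation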
[25] = target: T7, Kappa-type opioid receptor; assay: SAR analysis of Antagonists of the Kappa Opioid Receptor (KOR) using an Image-Based Assay - Set 4. [Related pubchem assays (depositor defined):AID1777, AID1785]; type: functional

T5 sequence (Q00975 whole entry): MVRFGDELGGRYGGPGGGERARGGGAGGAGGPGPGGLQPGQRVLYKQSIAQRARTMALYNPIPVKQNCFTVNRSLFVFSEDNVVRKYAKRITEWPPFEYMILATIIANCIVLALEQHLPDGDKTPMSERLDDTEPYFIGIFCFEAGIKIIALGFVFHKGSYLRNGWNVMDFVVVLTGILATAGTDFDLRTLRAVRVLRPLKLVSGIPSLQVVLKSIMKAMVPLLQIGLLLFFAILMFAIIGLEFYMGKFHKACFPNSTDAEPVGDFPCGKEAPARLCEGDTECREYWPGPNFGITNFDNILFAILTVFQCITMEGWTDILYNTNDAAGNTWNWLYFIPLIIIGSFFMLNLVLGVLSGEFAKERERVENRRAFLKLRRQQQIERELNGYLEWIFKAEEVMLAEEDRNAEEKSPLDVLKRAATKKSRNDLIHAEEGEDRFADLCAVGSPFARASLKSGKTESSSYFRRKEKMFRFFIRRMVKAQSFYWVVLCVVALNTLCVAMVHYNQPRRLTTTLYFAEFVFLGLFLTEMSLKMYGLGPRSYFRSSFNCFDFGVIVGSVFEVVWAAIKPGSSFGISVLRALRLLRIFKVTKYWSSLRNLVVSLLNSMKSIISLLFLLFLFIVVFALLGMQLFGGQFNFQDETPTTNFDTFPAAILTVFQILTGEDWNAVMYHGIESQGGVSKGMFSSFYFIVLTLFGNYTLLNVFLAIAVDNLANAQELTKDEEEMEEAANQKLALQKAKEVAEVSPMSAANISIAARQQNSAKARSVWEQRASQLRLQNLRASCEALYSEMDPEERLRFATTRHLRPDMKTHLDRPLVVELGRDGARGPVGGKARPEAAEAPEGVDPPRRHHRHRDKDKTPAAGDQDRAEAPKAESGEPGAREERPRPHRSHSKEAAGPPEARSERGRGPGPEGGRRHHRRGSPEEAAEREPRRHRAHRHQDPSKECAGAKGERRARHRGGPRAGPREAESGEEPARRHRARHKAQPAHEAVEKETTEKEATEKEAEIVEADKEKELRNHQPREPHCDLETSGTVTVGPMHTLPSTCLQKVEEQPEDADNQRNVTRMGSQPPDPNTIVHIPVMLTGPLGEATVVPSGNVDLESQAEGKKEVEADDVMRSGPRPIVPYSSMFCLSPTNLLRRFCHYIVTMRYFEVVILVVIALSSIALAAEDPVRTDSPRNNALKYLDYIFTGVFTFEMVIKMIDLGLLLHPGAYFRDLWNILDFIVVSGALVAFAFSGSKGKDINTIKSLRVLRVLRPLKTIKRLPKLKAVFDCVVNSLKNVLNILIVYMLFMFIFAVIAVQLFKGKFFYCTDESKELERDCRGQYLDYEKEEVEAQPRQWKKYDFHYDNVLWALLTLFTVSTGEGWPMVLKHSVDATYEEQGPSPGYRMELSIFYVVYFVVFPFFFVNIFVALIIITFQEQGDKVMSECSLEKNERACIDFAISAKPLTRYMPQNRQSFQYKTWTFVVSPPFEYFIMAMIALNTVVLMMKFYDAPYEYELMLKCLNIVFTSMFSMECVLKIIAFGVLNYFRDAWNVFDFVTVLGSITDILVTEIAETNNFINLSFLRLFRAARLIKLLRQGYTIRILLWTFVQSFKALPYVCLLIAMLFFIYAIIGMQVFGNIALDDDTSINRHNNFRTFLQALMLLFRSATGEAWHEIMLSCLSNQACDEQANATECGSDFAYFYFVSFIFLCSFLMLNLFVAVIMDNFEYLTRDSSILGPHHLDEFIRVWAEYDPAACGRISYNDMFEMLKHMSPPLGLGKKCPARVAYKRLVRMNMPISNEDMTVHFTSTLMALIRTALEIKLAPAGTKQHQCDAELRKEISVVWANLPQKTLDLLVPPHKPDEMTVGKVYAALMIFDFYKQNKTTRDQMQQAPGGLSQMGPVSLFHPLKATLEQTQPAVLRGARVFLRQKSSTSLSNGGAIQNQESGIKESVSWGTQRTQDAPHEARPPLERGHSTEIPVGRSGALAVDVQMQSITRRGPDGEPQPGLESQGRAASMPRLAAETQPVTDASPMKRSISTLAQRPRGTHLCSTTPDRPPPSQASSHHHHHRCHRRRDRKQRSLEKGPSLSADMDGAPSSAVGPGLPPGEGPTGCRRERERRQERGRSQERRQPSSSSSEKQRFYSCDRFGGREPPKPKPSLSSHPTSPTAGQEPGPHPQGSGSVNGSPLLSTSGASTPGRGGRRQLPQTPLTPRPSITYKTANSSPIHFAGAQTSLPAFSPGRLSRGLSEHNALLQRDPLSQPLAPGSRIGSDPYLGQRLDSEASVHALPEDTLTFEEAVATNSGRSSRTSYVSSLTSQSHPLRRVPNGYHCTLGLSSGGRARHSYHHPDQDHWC
T5 sequence (Q02410 whole entry): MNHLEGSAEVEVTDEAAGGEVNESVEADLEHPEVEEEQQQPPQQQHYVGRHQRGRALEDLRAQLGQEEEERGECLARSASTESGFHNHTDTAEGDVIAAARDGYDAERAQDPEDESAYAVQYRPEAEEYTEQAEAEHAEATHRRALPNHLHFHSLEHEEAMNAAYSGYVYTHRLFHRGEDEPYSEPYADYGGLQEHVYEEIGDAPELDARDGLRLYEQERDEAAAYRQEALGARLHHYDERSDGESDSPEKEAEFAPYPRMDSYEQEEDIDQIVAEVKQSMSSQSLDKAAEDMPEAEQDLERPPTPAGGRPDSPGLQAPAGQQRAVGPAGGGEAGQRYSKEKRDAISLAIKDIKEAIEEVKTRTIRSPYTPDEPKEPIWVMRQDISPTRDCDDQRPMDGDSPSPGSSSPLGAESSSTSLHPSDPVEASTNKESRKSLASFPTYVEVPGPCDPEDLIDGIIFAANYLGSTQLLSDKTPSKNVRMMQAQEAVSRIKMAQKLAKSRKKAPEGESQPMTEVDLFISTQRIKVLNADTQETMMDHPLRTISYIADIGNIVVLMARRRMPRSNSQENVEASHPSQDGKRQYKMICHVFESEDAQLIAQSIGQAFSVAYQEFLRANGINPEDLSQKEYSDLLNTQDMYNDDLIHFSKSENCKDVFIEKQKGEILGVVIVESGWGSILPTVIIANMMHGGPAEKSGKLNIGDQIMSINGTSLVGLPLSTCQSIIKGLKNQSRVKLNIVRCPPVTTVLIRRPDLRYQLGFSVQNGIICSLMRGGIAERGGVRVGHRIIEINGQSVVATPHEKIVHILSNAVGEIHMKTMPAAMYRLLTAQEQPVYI
T7 sequence (P41145 whole entry): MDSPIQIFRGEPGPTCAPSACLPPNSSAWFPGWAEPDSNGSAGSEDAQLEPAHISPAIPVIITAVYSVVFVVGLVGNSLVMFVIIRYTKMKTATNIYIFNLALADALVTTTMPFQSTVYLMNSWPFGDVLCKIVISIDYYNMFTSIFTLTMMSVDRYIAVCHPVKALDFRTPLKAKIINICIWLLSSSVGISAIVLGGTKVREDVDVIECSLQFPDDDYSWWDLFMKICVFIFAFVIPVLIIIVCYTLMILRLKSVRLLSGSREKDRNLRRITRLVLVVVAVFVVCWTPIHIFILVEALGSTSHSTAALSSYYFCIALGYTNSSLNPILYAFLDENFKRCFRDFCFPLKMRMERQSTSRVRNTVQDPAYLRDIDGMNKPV
T6 sequence (P65502 whole entry): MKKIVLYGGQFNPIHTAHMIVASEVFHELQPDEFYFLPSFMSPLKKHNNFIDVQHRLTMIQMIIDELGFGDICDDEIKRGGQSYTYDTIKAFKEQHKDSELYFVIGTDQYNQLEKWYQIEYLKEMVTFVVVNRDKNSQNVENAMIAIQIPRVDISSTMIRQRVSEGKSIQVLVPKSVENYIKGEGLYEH
Chain of Luciferin 4-monooxygenase (P08659 whole entry): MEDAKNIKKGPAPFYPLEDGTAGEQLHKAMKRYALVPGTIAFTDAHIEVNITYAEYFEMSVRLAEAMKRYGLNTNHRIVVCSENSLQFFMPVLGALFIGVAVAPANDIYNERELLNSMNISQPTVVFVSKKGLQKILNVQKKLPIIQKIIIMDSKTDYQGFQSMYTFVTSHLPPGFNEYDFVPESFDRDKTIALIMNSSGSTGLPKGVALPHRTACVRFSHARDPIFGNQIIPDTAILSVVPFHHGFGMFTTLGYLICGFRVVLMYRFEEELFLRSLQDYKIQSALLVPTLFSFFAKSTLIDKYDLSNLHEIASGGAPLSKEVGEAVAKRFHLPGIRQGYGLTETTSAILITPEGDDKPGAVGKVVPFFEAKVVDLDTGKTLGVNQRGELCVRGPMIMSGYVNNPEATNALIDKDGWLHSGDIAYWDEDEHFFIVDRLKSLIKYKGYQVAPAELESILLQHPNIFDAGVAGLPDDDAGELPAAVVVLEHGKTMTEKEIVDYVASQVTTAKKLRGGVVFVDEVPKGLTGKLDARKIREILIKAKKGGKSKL
Chain of Serine/threonine-protein phosphatase PP1-alpha catalytic subunit (P62136 whole entry): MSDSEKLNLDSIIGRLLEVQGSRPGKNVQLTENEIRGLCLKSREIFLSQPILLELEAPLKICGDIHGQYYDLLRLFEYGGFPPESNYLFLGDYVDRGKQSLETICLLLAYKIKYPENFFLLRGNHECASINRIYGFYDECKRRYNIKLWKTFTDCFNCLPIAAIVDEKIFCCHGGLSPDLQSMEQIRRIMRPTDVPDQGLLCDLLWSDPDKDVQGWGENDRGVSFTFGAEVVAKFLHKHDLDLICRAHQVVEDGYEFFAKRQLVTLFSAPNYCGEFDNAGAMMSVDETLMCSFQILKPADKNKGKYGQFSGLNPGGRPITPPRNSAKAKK
Chain of Eukaryotic translation initiation factor 4E (P63073 whole entry): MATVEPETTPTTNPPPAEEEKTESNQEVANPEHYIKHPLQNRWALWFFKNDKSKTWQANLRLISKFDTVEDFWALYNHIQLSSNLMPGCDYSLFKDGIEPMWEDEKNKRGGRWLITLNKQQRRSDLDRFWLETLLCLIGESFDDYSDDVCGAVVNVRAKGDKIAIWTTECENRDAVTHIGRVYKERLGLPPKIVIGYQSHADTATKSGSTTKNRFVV
Chain of Bcl-2-like protein 10 (Q9HD36 whole entry): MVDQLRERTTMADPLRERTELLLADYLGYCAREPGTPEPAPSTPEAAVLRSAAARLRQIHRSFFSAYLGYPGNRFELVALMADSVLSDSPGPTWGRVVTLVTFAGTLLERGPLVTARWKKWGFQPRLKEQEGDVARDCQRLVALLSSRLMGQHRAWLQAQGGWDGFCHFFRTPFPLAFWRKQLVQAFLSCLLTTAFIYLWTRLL

N#Cc1ccc(CSc2nnc(NC(=O)c3ccc4ncsc4c3)s2)cc1
IC50 [1]: 7.42 µM (active)
IC50 [2]: > 67 µM (not active)
IC50 [3]: 3.79 µM (active)
IC50 [4]: 3.91 µM (active)
IC50 [5]: 13.1 µM (active)
IC50 (Hexokinase HKDC1): 10.4 µM (active)

COc1ccc(C(=O)O/N=C(\C)c2ccccc2)cc1
EC50 [6]: 0.637 µM (active)
EC50 [7]: 3.61 µM (active)
AC50 [8]: 90.4 µM (active)
AC50 [9]: 26.1 µM (active)

CCN(CC)CCc1c(C)[nH]c(C(=O)OCc2ccccc2)c1C
IC50 (Bcl-2-like protein 10): 41.8 µM (active)
IC50 [10]: 14.4 µM (not active)

Cc1cc(O)nc(-n2nc(C)cc2NC(=O)c2cc3ccccc3o2)n1
EC50 (Wee1-like protein kinase): > 16.6 µM (active)
EC50 [11]: > 49.7 µM (inactive)

O=Cc1ccc(Oc2ncnc3ccccc23)cc1
Ki [12]: 43.7 µM (inactive)

CCN(CC)CCC/N=C/c1c(-c2ccccc2)nn(-c2nc3ccccc3s2)c1O
IC50 [13]: > 80 µM (inactive)
AC50 [14]: > 20 µM (inactive)

COc1ccc(-c2cc(C(=O)OC3CCOC3=O)c3ccccc3n2)cc1 (stereo not drawn)
EC50 (Caspase-3): > 85.3 µM (inactive)
EC50 (Caspase-7): > 85.3 µM (inactive)

CCCCCNC(=O)C(=O)C1C(=O)Nc2ccccc21 (stereo not drawn)
IC50 [15]: 2.9 µM (active)

COc1ccc(NC(=O)c2cc(-c3ccco3)nc3ccccc23)cc1S(=O)(=O)N1CCOCC1
IC50 (Genome polyprotein): > 49.8 µM (not active)
IC50 [16]: 2.59 µM (active)
IC50 [17]: 3.76 µM (active)
IC50 [18]: 2.29 µM (active)
IC50 (SUMO E1/E2): 19.4 µM (active)
IC50 [19]: 17.7 µM (active)
IC50 [20]: 15 µM (active)
IC50 [21]: 8.76 µM (active)
IC50 [22]: 28.1 µM (active)

Cc1ccc(S(=O)(=O)NCc2ccc(C(=O)NC3CCN(Cc4ccccc4)C3)cc2)cc1 (stereo not drawn)
IC50 (Mu-type opioid receptor): > 32 µM (inactive)
IC50 [23]: > 20 µM (inactive)
IC50 [24]: > 32 µM (inactive)
IC50 [25]: > 32 µM (inactive)
